From article PMC4759042, “The D‐amino acid transport by the invertebrate SLC6 transporters KAAT1 and CAATCH1 from Manduca sexta” (Physiological Reports, 2016)

How the values were obtained:
CAATCH1 (msCAATCH1) [1] = biological target: T1, CAATCH1 (msCAATCH1) (Manduca sexta, UniProt Q9U5A9); test: two-electrode voltage clamp in oocytes, transport current; format: cell-based; details: NaCl 98 mmol/L, pH 7.6, -60 mV
T1 construct: full-length transporter from cRNA in Xenopus laevis oocytes
T1 sequence (Q9U5A9 1-633): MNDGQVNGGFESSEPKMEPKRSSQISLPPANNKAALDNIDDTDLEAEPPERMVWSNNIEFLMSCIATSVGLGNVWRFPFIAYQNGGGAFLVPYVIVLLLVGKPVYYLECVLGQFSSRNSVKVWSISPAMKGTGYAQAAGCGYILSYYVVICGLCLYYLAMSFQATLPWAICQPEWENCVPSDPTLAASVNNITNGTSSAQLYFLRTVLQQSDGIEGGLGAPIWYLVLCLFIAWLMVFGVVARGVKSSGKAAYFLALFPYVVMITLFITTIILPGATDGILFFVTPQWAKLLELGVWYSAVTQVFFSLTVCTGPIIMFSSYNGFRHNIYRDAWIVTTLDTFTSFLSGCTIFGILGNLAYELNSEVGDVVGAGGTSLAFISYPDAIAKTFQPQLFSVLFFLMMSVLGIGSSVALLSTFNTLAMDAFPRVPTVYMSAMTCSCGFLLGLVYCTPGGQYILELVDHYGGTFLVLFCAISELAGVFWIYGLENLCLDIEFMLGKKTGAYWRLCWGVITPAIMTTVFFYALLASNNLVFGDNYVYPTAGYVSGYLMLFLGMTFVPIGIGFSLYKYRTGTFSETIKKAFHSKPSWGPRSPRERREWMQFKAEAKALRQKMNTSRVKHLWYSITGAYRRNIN

CAATCH1 (msCAATCH1) [2] = biological target: T1, CAATCH1 (msCAATCH1); test: two-electrode voltage clamp in oocytes, block of leak current; format: cell-based; details: NaCl 98 mmol/L, pH 7.6, -60 mV; blocker, not transported
KAAT1 (msKAAT1) = biological target: T2, KAAT1 (msKAAT1) (Manduca sexta, UniProt O76188); test: two-electrode voltage clamp in oocytes, transport current; format: cell-based; details: NaCl 98 mmol/L, pH 7.6, -60 mV; main transport site, up to 300 μmol/L
T2 construct: full-length transporter from cRNA in Xenopus laevis oocytes
T2 sequence (O76188 1-634): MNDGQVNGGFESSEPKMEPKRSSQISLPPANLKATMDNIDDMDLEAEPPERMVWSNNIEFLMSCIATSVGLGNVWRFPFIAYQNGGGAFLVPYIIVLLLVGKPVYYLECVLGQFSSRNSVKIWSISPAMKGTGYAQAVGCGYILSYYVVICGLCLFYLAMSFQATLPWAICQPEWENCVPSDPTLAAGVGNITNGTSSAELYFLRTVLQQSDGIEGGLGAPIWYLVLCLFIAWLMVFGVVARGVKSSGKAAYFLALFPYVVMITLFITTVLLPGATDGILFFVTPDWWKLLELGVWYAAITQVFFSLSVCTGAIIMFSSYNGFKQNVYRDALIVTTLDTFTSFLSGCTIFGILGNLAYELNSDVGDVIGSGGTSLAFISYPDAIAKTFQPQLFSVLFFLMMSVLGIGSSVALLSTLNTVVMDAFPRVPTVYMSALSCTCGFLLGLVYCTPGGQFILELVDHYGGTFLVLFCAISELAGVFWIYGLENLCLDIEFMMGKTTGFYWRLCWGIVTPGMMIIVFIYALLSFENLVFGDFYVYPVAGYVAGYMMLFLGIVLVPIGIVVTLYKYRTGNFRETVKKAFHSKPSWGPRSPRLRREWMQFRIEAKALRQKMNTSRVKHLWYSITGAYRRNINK

[3] = substrate: CC(C)C[C@H](N)C(=O)O; test: as above; format: cell-based, Manduca sexta; details: NaCl 98 mmol/L, pH 7.6, -60 mV, 20-25 °C

## N[C@H](CO)C(=O)O [D‐serine]
CAATCH1 (msCAATCH1) [1]
  two-electrode voltage clamp in oocytes, transport current: the D‐enantiomer gives rise to a large current

## CC(C)C[C@H](N)C(=O)O [L‐leucine]
CAATCH1 (msCAATCH1) [2]
  two-electrode voltage clamp in oocytes, block of leak current: L‐leucine produces an apparent outward current, actually representing a block of the leak current

## N[C@@H](CO)C(=O)O [L‐serine]
CAATCH1 (msCAATCH1) [2]
  two-electrode voltage clamp in oocytes, block of leak current: has a blocking effect similar to that of L‐leucine

## CC(C)C[C@@H](N)C(=O)O [D‐leucine]
CAATCH1 (msCAATCH1) [1]; 30-1000 μmol/L
  two-electrode voltage clamp in oocytes, transport current: The amplitude of the response to D‐leucine increases with the substrate concentration
KAAT1 (msKAAT1)
  two-electrode voltage clamp in oocytes, transport current: increasing concentrations of D‐leucine to the oocyte caused progressively larger transport currents

B1: KAAT1 (msKAAT1) (Manduca sexta) (protein)
chain: T2 sequence (O76188 1-634)
notes: full-length transporter from cRNA in Xenopus laevis oocytes
[3]
  K0.5: 10 µmol/L
